The nature of test [1]: viability loss in THP-1 monocytes – THP-1 cells, cytotoxicity control for Vif-APOBEC3G degradation inhibitor project, dose response (AID 1117359). Format: functional. The note with it: THP-1.
Test [2] deals with T1, Mannose-6-phosphate isomerase (Homo sapiens, UniProt P34949).
T1 sequence (P34949 whole entry): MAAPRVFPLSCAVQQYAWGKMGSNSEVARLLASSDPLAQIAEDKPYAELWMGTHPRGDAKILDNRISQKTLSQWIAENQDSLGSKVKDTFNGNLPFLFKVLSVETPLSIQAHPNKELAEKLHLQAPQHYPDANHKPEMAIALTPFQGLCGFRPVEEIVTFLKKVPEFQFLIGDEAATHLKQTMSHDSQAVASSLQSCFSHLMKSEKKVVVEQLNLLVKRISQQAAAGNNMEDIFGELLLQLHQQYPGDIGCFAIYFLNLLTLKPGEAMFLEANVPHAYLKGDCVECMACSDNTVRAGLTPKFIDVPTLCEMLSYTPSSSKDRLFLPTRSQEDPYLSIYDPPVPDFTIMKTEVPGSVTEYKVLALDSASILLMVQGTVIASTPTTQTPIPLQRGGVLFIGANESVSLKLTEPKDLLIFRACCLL
Nature of the test: MPI inhibition at elevated mannose 6-phosphate – biochemical, fluorescence intensity, high mannose 6-phosphate, primary screen (AID 1220).

Test [3] has as its system Streptococcus. Nature of the test: GAS UMAA2166 growth inhibition – luminescence, BacTiterGlo, counter-screen for streptokinase expression inhibitor project, dose response (AID 1915).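 Further: potency for reduction of bacterial viability or growth.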 Format: functional, organism-based. (In general: Counterscreens check selectivity or assay interference.)
Test [4] has as its system Streptococcus sp. 'group A'. The test is described as follows: Streptococcus pyogenes SK(-)GAS viability under kanamycin – luminescence, BacTiterGlo, confirmation, counter-screen for streptokinase expression inhibitor project, dose response (AID 1900). It is filed as functional, organism-based.
The nature of test [5]: NIH3T3 cell viability loss – ATP luminescence, mouse fibroblasts, counter-screen, dose response (AID 2010).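 Further: cells exposed to compound for about 90 hours before reading.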 Format: functional, cell-based.
Test [6] in a line: viability loss in Vero cells – cytotoxicity control for Vif-APOBEC3G degradation inhibitor project, dose response (AID 1117358). Format: functional. The note with it: Vero.
Test [7] can be described thus: Trypanosoma cruzi growth suppression in host cells – NIH3T3 host cells, beta-gal luminescence, confirmation (AID 2044).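 Further: intracellular parasites grown in NIH/3T3 mouse fibroblasts as host cells; luminescent beta-galactosidase reporter signal from transgenic T. cruzi replicating inside host cells; inhibitors lower the luminescence signal.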 It is filed as functional, cell-based.
The target in test [8] is T2, Streptokinase A (Streptococcus pyogenes serotype M1, UniProt P10520).
T2 sequence (P10520 whole entry): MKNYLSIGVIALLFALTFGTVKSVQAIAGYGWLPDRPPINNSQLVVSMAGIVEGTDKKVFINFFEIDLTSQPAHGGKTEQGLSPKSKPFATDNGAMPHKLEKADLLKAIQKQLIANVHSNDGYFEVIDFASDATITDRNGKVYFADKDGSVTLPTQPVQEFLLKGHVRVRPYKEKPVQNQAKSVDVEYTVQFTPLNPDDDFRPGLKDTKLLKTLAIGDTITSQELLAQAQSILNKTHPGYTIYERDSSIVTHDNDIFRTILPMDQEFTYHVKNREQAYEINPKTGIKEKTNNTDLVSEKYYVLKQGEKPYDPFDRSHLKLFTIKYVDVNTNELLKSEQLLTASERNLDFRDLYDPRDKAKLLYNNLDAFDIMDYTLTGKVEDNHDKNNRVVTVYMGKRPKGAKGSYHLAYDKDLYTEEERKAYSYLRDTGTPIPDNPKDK
The test is described as follows: viability-normalized secreted streptokinase activity reduction – plasminogen activation absorbance, OD405, dose response (AID 1914).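 Further: secreted streptokinase activity via plasminogen activation per viability signal from cell pellet.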 It is filed as functional, Streptococcus pyogenes M1 GAS.

Test [9] is described as follows: Luminescence Cell-Based Dose Retest to Confirm Inhibitors of Cancer Stem Cells. [Related pubchem assays (depositor defined):AID2717, AID2721]. Format: functional. The note with it: Homo sapiens.
A short description of test [10]: viability of PTEN-deleted HCT116 cells – cell-based, HCT116 PTEN knockout, dose response (AID 1047).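 Further: HCT116 colon tumor cells with PTEN knocked out; cells exposed to compound for 60 hours before readout; potency for loss of cell viability measured by luminescence.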 Format: functional.
The nature of test [11]: viability of HCT116 lacking mutant beta-catenin – cell-based, human colon tumor, dose response (AID 1045).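 Further: HCT116 colon tumor cells with beta catenin knocked out; cells exposed to compound for 60 hours.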 It is filed as functional.
The target in test [12] is Genome polyprotein (dengue virus type 2, UniProt P29990). The test is described as follows: flavivirus cap methylation enzyme inhibition – biochemical, confirmation dose response, primary screen (AID 588689). It is filed as functional.
Genome polyprotein, sequence (P29990 2492-3391 limits assumed): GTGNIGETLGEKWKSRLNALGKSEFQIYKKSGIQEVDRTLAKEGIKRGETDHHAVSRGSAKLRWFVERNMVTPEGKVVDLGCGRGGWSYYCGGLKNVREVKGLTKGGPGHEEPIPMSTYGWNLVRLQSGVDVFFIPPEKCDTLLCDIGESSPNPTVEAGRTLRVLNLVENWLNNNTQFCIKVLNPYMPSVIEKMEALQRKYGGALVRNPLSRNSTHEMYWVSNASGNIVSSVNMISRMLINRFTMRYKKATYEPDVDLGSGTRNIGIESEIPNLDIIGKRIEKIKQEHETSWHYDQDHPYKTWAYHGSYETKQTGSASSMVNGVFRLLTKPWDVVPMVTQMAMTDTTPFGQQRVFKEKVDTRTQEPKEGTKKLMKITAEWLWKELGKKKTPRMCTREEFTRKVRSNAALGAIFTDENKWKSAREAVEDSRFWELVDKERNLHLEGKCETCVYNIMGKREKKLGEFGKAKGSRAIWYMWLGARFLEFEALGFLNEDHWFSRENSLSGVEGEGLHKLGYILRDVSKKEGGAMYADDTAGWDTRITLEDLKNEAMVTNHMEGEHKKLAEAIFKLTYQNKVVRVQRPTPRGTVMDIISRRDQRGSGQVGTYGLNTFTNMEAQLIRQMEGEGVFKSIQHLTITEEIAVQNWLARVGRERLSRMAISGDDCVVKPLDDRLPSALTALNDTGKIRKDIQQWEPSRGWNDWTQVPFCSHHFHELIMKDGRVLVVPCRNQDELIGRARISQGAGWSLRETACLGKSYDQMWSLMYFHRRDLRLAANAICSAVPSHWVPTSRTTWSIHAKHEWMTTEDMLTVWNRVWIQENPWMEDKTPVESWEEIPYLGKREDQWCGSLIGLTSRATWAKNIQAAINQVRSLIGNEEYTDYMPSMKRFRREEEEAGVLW
The nature of test [13]: loss of viability in HepG2 cells – cell-based, CellTiter-Glo, cherry-picked, cytotoxicity control for Shn3 inhibitor project, dose response (AID 624134). It is filed as functional.
Test [14] concerns Vero. The test is described as follows: viability of Vero cells under compound – cytotoxicity control for flavivirus capping enzyme inhibitors (AID 588742). It is filed as functional. The following applies: Chlorocebus sabaeus.
The target of test [15] is T3, Caspase-6 (Homo sapiens, UniProt P55212).
T3 sequence (P55212 whole entry): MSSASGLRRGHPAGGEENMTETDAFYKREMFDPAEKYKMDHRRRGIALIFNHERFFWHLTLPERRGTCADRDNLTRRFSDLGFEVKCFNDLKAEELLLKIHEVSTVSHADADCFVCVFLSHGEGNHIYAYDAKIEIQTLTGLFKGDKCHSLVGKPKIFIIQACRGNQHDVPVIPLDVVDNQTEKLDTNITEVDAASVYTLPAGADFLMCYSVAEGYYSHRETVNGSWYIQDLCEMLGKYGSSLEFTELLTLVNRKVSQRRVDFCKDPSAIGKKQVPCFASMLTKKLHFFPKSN
Nature of the test: inhibition of CASP6 peptide cleavage – biochemical, VEID-R110 fluorescence, cherry-pick, dose response (AID 720632).

Test [16] can be described thus: reduction of Shn3 3'UTR-driven luciferase in osteoblasts – cell-based, Clone20 osteoblasts, firefly luciferase, cherry-picked, dose response (AID 624132).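 Further: firefly luciferase luminescence from reporter carrying the Shn3 3'UTR in osteoblasts.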 Format: functional.
A short description of test [17]: non-specific 3'UTR reporter inhibition in Clone20-Shn3RL – cell-based, Renilla luciferase, cherry-picked, counter-screen for Shn3 inhibitor project, dose response (AID 624133). It is filed as functional.

Active and inactive are the calls of the source.

Consider `COc1ccccc1-n1c(SCC(=O)NCc2ccc3c(c2)OCO3)nc2cc([N+](=O)[O-])ccc21`, for which the 50% cytotoxic concentration (CC50) in test [1] was > 40 µM (active). In addition, the IC50 in test [2] is on record as > 50 µM (not active).

In the case of `O=C(/C=C/c1ccccc1)NC(NC(=S)Nc1cc(Cl)ccc1Cl)C(Cl)(Cl)Cl` (configuration not stated), the half-maximal effective concentration (EC50) in [3] is 64.2 µM (active); in [4], 2.43 µM (active); in test [5], > 60 µM (not active); in test [7], 1.73 µM (active); in test [8], 4.43 µM (active); in test [10], 17.3 µM (active). Further, in test [11], the EC50 is 16.1 µM (active). Moreover, the CC50 in test [6] is > 40 µM (active). In addition, the half-maximal activity concentration (AC50) in [9] is 0.993 µM (active).

Turning to `CC(=O)N1CCc2c(sc(NC(=O)c3ccc([N+](=O)[O-])o3)c2C(N)=O)C1`, the half-inhibitory concentration (IC50) in [12] is 89.3 µM (active). Further, the half-maximal activity concentration (AC50) in test [13] is 20 µM (active); in test [15] it was 12.7 µM (active); in [16] it was 1.85 µM (active); in test [17], 13.1 µM (active). In test [14], the half-maximal cytotoxic concentration (CC50) was 4.1 µM (active).

By CC50 is commonly meant the concentration at which the toxic effect on the cells reaches its halfway point. The IC50 is the concentration at which inhibition is half-maximal. Broadly, the EC50 is the concentration needed to bring the measured effect to its halfway point. In general, AC50 refers to the concentration at which the activity in the assay is half-maximal.

The values are drawn from ChEMBL document CHEMBL1201862, “PubChem BioAssay data set” (2004).
